Laboratory results published in US20110311990A1, “TETRANOR-PGEM/PGAM SPECIFIC IMMUNOGENS, ANTIBODIES, TRACERS, ASSAY KITS AND METHODS FOR MAKING SAME” (Cayman Chemical Company, Incorporated, priority 2010, published 2011).

Key:
[1] = humans; cited from earlier work
[2] = tested on: tetranor-PGEM EIA Antiserum; test: Cross-reactivity testing of tetranor-PGEM antibody (polyclonal antiserum) by competitive EIA; type: binding, rabbit; details: for Cross-reactivity (% XR): Specificity of the tetranor-PGEM EIA Antiserum, Example 4 kit performance characteristics; for % XR: percent cross-reactivity = IC50 of tetranor-PGEM / IC50 of test compound x 100, Example 2, antiserum raised with tetranor-PGEM-KLH immunogen
Experimental: (§1) Rabbit immunizations were performed by Robert Sargeant Antibodies (655 Ash Street, Ramona, Calif. 92065) as follows: Male New Zealand White Rabbits 9-10 weeks of age, were immunized with Complete Freund's Adjuvant (CFA) initially, followed by Incomplete Freund's Adjuvant (IFA) for all subsequent injections. Immunogen 1 (200 μg; prepared in Step A, Procedure 1 of this Example; alternatively, Immunogen 1 A, which was prepared in Step A, Procedure 1A of this Example, has been used to produce antiserum according to this immunization method) was injected for the first immunization and 100 μg for boosts. The immunogen was diluted to one milliliter with sterile saline and combined with one milliliter of the appropriate adjuvant. The antigen and adjuvant were mixed thoroughly to form a stable emulsion which is injected subcutaneously. Blood was collected from the central ear artery and allowed to clot and retract. The serum was decanted and clarified by centrifugation before freezing.
(§2) Antisera (AS) from multiple bleeds from multiple rabbits were screened by titration on a 96-well microplate with detection of specific Ab based on its ability to bind the tetranor-PGEM-AChE conjugate (diluted 1:1000). The next screen consisted of a sensitivity screen selecting for AS with a suitable detection limit. The next screen excluded AS with unacceptably high cross-reactivity (experiment described below) with parent metabolites, tetranor-PGFM, and tetranor-PGDM. The final screen consisted of urinary measurements to confirm normal biological levels of tetranor-PGEM, and recovery experiments.
(§3) To determine cross-reactivity of an antibody, set up the standard curve using optimal tracer and Ab dilutions according the kit instructions. Tetranor-PGEM was diluted to 10 ng/ml for the first point in the standard curve and diluted 2.5-fold serially 7 times. First standard dilutions (10 μg/ml) of tetranor-PGDM, tetranor-PGJM, tetranor-PGAM, and tetranor-PGFM were prepared and 7 additional 6-fold serial dilutions were performed. IC50s of all compounds were determined and each percent cross-reactivity (% XR) values of the potentially cross-reactive compounds was determined by dividing the IC50 of tetranor-PGEM by the IC50 of the test compound and multiplying by 100. See the chart below for determined % XR values.

tetranor-PGAM antibody = test: Cross-reactivity testing of tetranor-PGAM antibody (polyclonal antiserum) by competitive EIA; type: binding, rabbit; details: percent cross-reactivity = IC50 of tetranor-PGAM / IC50 of test compound x 100; Example 3, antiserum raised with tetranor-PGAM-KLH immunogen
Experimental: as §1, with “Immunogen 3” for “Immunogen 1”, “prepared according to” for “prepared in”, “Step A” for “Step A, Procedure 1”, “this Example)” for “this Example; alternatively, Immunogen 1 A, which was prepared in Step A, Procedure 1A of this Example, has been used to produce antiserum according to this immunization method)”
as §2, with “tetranor-PGAM-AChE” for “tetranor-PGEM-AChE”, “(Tracer 4, diluted” for “(diluted”, “tetranor-PGAM,” for “tetranor-PGEM,”, “experiments. Only one AS passed all screens.” for “experiments.”
as §3, with “Tetranor-PGAM” for “Tetranor-PGEM”, “tetranor-PGEM,” for “tetranor-PGJM, tetranor-PGAM,”, “tetranor-PGAM” for “tetranor-PGEM”

SMILES | infused dose of PGE2 that appears as tetranor-PGEM in the urine [1] | Cross-reactivity (% XR) [2] | % XR [2] | % XR (tetranor-PGAM antibody)
CCCCC[C@H](O)/C=C/[C@H]1[C@H](O)CC(=O)[C@@H]1C/C=C\CCCC(=O)O [PGE2] | About 15% |  |  | 
O=C(O)CCCCC(=O)CC[C@H]1C=CC(=O)[C@@H]1CCC(=O)O [tetranor-PGAM] |  | 2,034% | 2,034% | 100%
O=C(O)CCCCC(=O)CC[C@H]1[C@H](O)CC(=O)[C@@H]1CCC(=O)O [tetranor-PGEM, 11α-hydroxy-9,15-dioxo-13,14-dihydro-2,3,4,5-tetranor-prostan-1,20-dioic acid] |  | 100% | 100% | 25.1%
O=C(O)CCCCC(=O)CC[C@H]1C(=O)C[C@H](O)[C@@H]1CCC(=O)O [tetranor-PGDM] |  | 1.5% | 1.5% | 5.3%
O=C(O)CCCCC(=O)CC[C@H]1C(=O)C=C[C@@H]1CCC(=O)O [tetranor-PGJM] |  | 27.4% | 27.4% | 
O=C(O)CCCCC(=O)CC[C@@H]1[C@@H](CCC(=O)O)[C@@H](O)C[C@H]1O [tetranor-PGFM] |  | 7.8% | 7.8% | 1.0%
